Test results taken from patent US20040224958A1, “Pyridopyrimidinone derivatives for treatment of neurodegenerative disease” (priority 2000, published 2004).
Blank lines part the entries; values can stand above or below the molecule they belong to.

Assays:
cdk2/cyclinE = cdk2/cyclinE (Homo sapiens, UniProt P24941); assay: Cyclin-Dependent Kinase Assay cdk2/cyclinE; conditions: cdk2/E IC50, Table 1
cdk2/cyclinA = cdk2/cyclinA (Homo sapiens, UniProt P24941); assay: Cyclin-Dependent Kinase Assay cdk2/cyclinA; conditions: cdk2/A IC50, Table 1
Cdk5/p25 = Cdk5/p25 (Homo sapiens, UniProt Q00535); assay: Cyclin-Dependent Kinase 5 (cdk5) Assay; format: biochemical; conditions: Table 1
Experimental: Cyclin-Dependent Kinase 5 (cdk5) Assay
Enzyme assays for IC50 determinations and kinetic evaluation were performed in 96-well filter plates (Millipore MAPH NOB 10). […] All components except histone and ATP were added to wells, and the plate was placed on a shaker for 5 minutes. The reaction was started by adding histone and [^32P]ATP, and the plate was shaken at 30° C. for 45 minutes. The reaction was terminated by addition of 0.1 mL of 150 mM phosphoric acid. The plate was kept at 4° C. for 30 minutes to allow substrate to precipitate. The wells were then washed three times with 0.2 mL of 75 mM phosphoric acid and ^32P incorporation was determined with a beta plate counter (Wallac Inc, Gaithersburg, Md.).

cdc2/cyclinB = cdc2/cyclinB (Homo sapiens, UniProt P06493); assay: Cyclin-Dependent Kinase Assay cdc2/cyclinB
cdc2/cyclinB, sequence (P06493 whole entry): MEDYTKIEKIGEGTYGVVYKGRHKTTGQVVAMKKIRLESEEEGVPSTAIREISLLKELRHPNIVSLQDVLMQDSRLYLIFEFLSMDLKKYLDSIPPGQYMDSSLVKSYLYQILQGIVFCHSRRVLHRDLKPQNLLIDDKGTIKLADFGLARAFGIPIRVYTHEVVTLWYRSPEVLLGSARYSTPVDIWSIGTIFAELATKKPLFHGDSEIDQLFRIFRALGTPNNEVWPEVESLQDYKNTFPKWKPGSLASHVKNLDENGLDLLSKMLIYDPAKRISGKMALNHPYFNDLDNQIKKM
cdc2/cyclinB, sequence (P14635 whole entry, further chain): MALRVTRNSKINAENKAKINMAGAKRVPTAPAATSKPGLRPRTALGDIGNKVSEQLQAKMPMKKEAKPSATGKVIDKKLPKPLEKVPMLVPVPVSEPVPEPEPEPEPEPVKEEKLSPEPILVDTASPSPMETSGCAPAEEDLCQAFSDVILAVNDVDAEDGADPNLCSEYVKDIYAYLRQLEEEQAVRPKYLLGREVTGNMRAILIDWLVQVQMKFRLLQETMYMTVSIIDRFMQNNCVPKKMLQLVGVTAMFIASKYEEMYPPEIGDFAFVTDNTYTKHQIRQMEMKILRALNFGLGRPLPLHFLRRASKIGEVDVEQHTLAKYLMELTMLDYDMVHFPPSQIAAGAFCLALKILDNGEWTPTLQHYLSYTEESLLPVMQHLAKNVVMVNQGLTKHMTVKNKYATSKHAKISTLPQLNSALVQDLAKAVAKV

cdk4/D = cdk4/D (Homo sapiens, UniProt P11802); assay: Cyclin-Dependent Kinase 4 (cdk4) Assay; format: biochemical; conditions: Table 1; read-out: cdk4/D IC50
cdk4/D, sequence (P11802 whole entry): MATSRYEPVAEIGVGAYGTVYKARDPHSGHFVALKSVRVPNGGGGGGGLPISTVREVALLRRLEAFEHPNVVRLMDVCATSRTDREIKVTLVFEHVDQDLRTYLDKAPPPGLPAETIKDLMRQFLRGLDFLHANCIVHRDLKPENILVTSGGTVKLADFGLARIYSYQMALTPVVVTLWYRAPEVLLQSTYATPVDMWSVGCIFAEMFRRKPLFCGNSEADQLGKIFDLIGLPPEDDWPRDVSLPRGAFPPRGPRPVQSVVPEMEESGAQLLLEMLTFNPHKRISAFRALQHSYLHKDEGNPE
cdk4/D, sequence (P24385 whole entry, further chain): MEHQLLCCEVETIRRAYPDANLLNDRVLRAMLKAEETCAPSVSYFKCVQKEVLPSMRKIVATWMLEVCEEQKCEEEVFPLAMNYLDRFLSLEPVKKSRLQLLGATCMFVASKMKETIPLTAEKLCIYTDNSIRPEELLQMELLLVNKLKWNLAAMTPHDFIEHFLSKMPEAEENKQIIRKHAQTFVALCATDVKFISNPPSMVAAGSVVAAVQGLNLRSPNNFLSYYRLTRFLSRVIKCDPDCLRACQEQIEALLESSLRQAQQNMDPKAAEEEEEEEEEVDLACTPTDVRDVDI

Compound: CN(C)c1ccc(Nc2ncc3ccc(=O)n(CCCOCc4ccccc4)c3n2)cc1 [Example 138, 8-(3-Benzyloxy-propyl)-2-(4-dimethylamino-phenylamino)-8H-pyrido[2,3-d]pyrimidin-7-one]
IC50 (cdk2/cyclinE): 2.63 µM | IC50 (cdk2/cyclinA): 0.217 µM | IC50 (Cdk5/p25): 0.28 µM | IC50 (cdc2/cyclinB): 3.3 µM | melting point: 144 to 146 °C | IC50 (cdk4/D): 0.513 µM

Compound: O=c1ccc2cnc(Nc3ccc(N4CCc5ccccc5C4)cc3)nc2n1C1CCCCC1 [Example 171, 8-Cyclohexyl-2-[4-(3,4-dihydro-1H-isoquinolin-2-yl)-phenylamino]-8H-pyrido[2,3-d]pyrimidin-7-one]
IC50 (cdk2/cyclinE): 0.32 µM | IC50 (cdk2/cyclinA): 0.123 µM | IC50 (Cdk5/p25): 0.419 µM | IC50 (cdc2/cyclinB): 1.21 µM | melting point: 185 °C

Compound: O=c1ccc2cnc(Nc3ccc(F)cc3)nc2n1C1CC2CCC1C2 (stereo not drawn) [Example 212, 8-Bicyclo[2.2.1]hept-2-yl-2-(4-fluoro-phenylamino)-8H-pyrido[2,3-d]pyrimidin-7-one]
IC50 (cdk2/cyclinE): 0.014 µM | IC50 (cdk2/cyclinA): 0.016 µM | IC50 (Cdk5/p25): 0.0101 µM | IC50 (cdc2/cyclinB): 0.189 µM | melting point: 219 to 220 °C | IC50 (cdk4/D): 0.0297 µM

Compound: O=c1ccc2cnc(Nc3ccc(N4CCC(O)CC4)cc3)nc2n1C1CCCCC1 [Example 215, 8-Cyclohexyl-2-[4-(4-hydroxy-piperidin-1-yl)-phenylamino]-8H-pyrido[2,3-d]pyrimidin-7-one]
IC50 (cdk2/cyclinE): 0.024 µM | IC50 (cdk2/cyclinA): 0.0084 µM | IC50 (Cdk5/p25): 0.0244 µM | IC50 (cdc2/cyclinB): 0.112 µM | melting point: 224 to 225 °C | IC50 (cdk4/D): 0.0075 µM

Compound: O=c1ccc2cnc(Nc3ccc(F)c(F)c3)nc2n1C1CC2CCC1C2 (stereo not drawn) [Example 220, 8-Bicyclo[2.2.1]hept-2-yl-2-(3,4-difluoro-phenylamino)-8H-pyrido[2,3-d]pyrimidin-7-one]
IC50 (cdk2/cyclinE): 0.05 µM | IC50 (cdk2/cyclinA): 0.0578 µM | IC50 (Cdk5/p25): 0.0662 µM | IC50 (cdc2/cyclinB): 1.66 µM | melting point: 227 to 228 °C | IC50 (cdk4/D): 0.115 µM

Compound: CCN(CC)CCOc1ccc(Nc2ncc3ccc(=O)n(C4CC5CCC4C5)c3n2)cc1 (stereo not drawn) [Example 224, 8-Bicyclo[2.2.1]hept-2-yl-2-[4-(2-diethylamino-ethoxy)-phenylamino]-8H-pyrido[2,3-d]pyrimidin-7-one]
IC50 (cdk2/cyclinE): 0.075 µM | IC50 (cdk2/cyclinA): 0.0815 µM | IC50 (Cdk5/p25): 0.0532 µM | IC50 (cdc2/cyclinB): 0.2 µM | melting point: 133 to 134 °C

Compound: O=c1ccc2cnc(Nc3ccc(N4CCC(O)CC4)cc3)nc2n1C1CC2CCC1C2 (stereo not drawn) [Example 227, 8-Bicyclo[2.2.1]hept-2-yl-2-[4-(4-hydroxy-piperidin-1-yl)-phenylamino]-8H-pyrido[2,3-d]pyrimidin-7-one]
IC50 (cdk2/cyclinE): 0.056 µM | IC50 (cdk2/cyclinA): 0.0207 µM | IC50 (Cdk5/p25): 0.036 µM | IC50 (cdc2/cyclinB): 0.0825 µM | melting point: 206 °C | IC50 (cdk4/D): 0.0028 µM

Compound: O=c1ccc2cnc(Nc3ccc(N4CCCC(CO)C4)cc3)nc2n1C1CC2CCC1C2 (stereo not drawn) [Example 231, 8-Bicyclo[2.2.1]hept-2-yl-2-[4-(3-hydroxymethyl-piperidin-1-yl)-phenylamino]-8H-pyrido[2,3-d]pyrimidin-7-one]
IC50 (cdk2/cyclinE): 0.085 µM | IC50 (cdk2/cyclinA): 0.063 µM | IC50 (Cdk5/p25): 0.167 µM | IC50 (cdc2/cyclinB): 0.22 µM | melting point: 152 °C | IC50 (cdk4/D): 0.0021 µM

Compound: O=c1ccc2cnc(Nc3ccc(N4CCCC(CCCO)C4)cc3)nc2n1C1CC2CCC1C2 (stereo not drawn) [Example 236, 8-Bicyclo[2.2.1]hept-2-yl-2-{4-[3-(3-hydroxy-propy)-piperidin-1-yl]-phenylamino}-8H-pyrido[2,3-d]pyrimidin-7-one]
IC50 (cdk2/cyclinA): 0.0136 µM | IC50 (Cdk5/p25): 0.395 µM | IC50 (cdc2/cyclinB): 0.674 µM | melting point: 150 to 151 °C | IC50 (cdk4/D): 0.0069 µM

Compound: CN1CCN(c2ccc(Nc3ncc4ccc(=O)n(C5CC6CCC5C6)c4n3)cc2)CC1 (stereo not drawn) [Example 252]
IC50 (cdk2/cyclinE): 0.102 µM | IC50 (cdk2/cyclinA): 0.0425 µM | IC50 (Cdk5/p25): 0.0237 µM | IC50 (cdc2/cyclinB): 0.16 µM | melting point: 233 to 234 °C | IC50 (cdk4/D): 0.0061 µM

Second part, the molecule after the results:

IC50 (cdk2/cyclinE): 0.091 µM | IC50 (cdk2/cyclinA): 0.0605 µM | IC50 (Cdk5/p25): 0.0259 µM | IC50 (cdc2/cyclinB): 0.373 µM | melting point: 135 to 137 °C | IC50 (cdk4/D): 0.0105 µM
Compound: CCN(CC)CCOc1ccc(Nc2ncc3ccc(=O)n(C4CCCCC4)c3n2)cc1 [Example 132, 8-Cyclohexyl-2-[4-(2-diethylamino-ethoxy)-phenylamino]-8H-pyrido[2,3-d]pyrimidin-7-one]

IC50 (cdk2/cyclinE): 0.0197 µM | IC50 (cdk2/cyclinA): 0.015 µM | IC50 (Cdk5/p25): 0.0069 µM | IC50 (cdc2/cyclinB): 0.0785 µM | melting point: 205 to 207 °C | IC50 (cdk4/D): 0.0045 µM
Compound: CN1CCN(c2ccc(Nc3ncc4ccc(=O)n(C5CCCCC5)c4n3)cc2)CC1 [Example 133, 8-Cyclohexyl-2-[4-(4-methyl-piperazin-1-yl)-phenylamino]-8H-pyrido[2,3-d]pyrimidin-7-one]

IC50 (cdk2/cyclinE): 0.0455 µM | IC50 (cdk2/cyclinA): 0.0325 µM | IC50 (Cdk5/p25): 0.0173 µM | IC50 (cdc2/cyclinB): 0.145 µM | melting point: 237 to 239 °C | IC50 (cdk4/D): 0.0045 µM
Compound: CC1CN(c2ccc(Nc3ncc4ccc(=O)n(C5CCCCC5)c4n3)cc2)CC(C)N1 (stereo not drawn) [Example 145, 8-Cyclohexyl-2-14-(3,5-dimethyl-piperazin-1-yl)-phenylamino-8H-pyrido[2,3-d]pyrimidin-7-one]

IC50 (cdk2/cyclinE): 0.0197 µM | IC50 (cdk2/cyclinA): 0.015 µM | IC50 (Cdk5/p25): 0.0069 µM | IC50 (cdc2/cyclinB): 0.0785 µM | melting point: 208 to 209 °C | IC50 (cdk4/D): 0.0045 µM
Compound: CC1CCN(c2ccc(Nc3ncc4ccc(=O)n(C5CCCCC5)c4n3)cc2)CC1 [Example 159, 8-Cyclohexyl-2-[4-(4-methyl-piperidin-1-yl)-phenylamino]-8H-pyrido[2,3-d]pyrimidin-7-one]

IC50 (cdk2/cyclinE): 0.554 µM | IC50 (cdk2/cyclinA): 0.104 µM | IC50 (Cdk5/p25): 0.0431 µM | IC50 (cdc2/cyclinB): 0.45 µM | melting point: 183 to 184 °C | IC50 (cdk4/D): 0.275 µM
Compound: O=c1ccc2cnc(Nc3ccc(-n4cccc4)cc3)nc2n1C1CCCCC1 [Example 161, 8-Cyclohexyl-2-(4-pyrrole-1-yl-phenylamino)-811-pyrido[2,3-d]pyrimidin-7-one]

IC50 (cdk2/cyclinE): 0.087 µM | IC50 (cdk2/cyclinA): 0.0357 µM | IC50 (Cdk5/p25): 0.0425 µM | IC50 (cdc2/cyclinB): 0.267 µM | melting point: 241 to 242 °C | IC50 (cdk4/D): 0.089 µM
Compound: O=c1ccc2cnc(Nc3ccc(-n4cccn4)cc3)nc2n1C1CCCCC1 [Example 162, 8-Cyclohexyl-2-(4-pyrazol-1-yl-phenylamino)-8H-pyrido[2,3-d]pyrimidin-7-one]

IC50 (cdk2/cyclinE): 31.9 µM | IC50 (cdk2/cyclinA): 6.61 µM | IC50 (Cdk5/p25): 0.568 µM | IC50 (cdc2/cyclinB): 7.07 µM | melting point: 214 to 215 °C | IC50 (cdk4/D): 0.78 µM
Compound: O=c1ccc2cnc(Nc3ccc(OC(F)(F)C(F)F)cc3)nc2n1C1CC2CCC1C2 (stereo not drawn) [Example 219, 8-Bicyclo[2.2.1]hept-2-yl-2-[4-(1,1,2,2-tetrafluoro-ethoxy)-phenylamino]-8H-pyrido[2,3-d]pyrimidin-7-one]

IC50 (cdk2/cyclinE): 0.185 µM | IC50 (cdk2/cyclinA): 0.0985 µM | IC50 (Cdk5/p25): 0.0388 µM | IC50 (cdc2/cyclinB): 0.38 µM | melting point: 202 °C | IC50 (cdk4/D): 0.0055 µM
Compound: O=c1ccc2cnc(Nc3ccc(N4CCC(CCO)CC4)cc3)nc2n1C1CC2CCC1C2 (stereo not drawn) [Example 228, 8-Bicyclo[2.2.1]hept-2-yl-2-{4-[4-(2-hydroxy-ethyl)-piperidin-1-yl]-phenylamino}-8H-pyrido[2,3-d]pyrimidin-7-one]

IC50 (cdk2/cyclinE): 0.149 µM | IC50 (cdk2/cyclinA): 0.11 µM | IC50 (Cdk5/p25): 0.3 µM | IC50 (cdc2/cyclinB): 0.67 µM | melting point: 160 to 161 °C | IC50 (cdk4/D): 0.0115 µM
Compound: O=c1ccc2cnc(Nc3ccc(N4CCCCC4CO)cc3)nc2n1C1CC2CCC1C2 (stereo not drawn) [Example 253]
